Assay results published in ChEMBL document CHEMBL5352447, “Development of [1,2]oxazoloisoindoles tubulin polymerization inhibitors: Further chemical modifications and potential therapeutic effects against lymphomas” (Eur J Med Chem, 2022).
The source made the active and inactive calls. The calls are words filed in the database; no cut-off is given here.

System: VL51
Experiment: Antiproliferative activity against human VL51 cells assessed as proliferating cells at 1 uM incubated for 72 hrs by MTT assay relative to control
Assay type: functional
Settings: not given

| SMILES | Activity [%] |
| --- | --- |
| COc1cc(Cn2cc3c(c2)-c2oncc2CC3)cc(OC)c1OC | 28.1 |

System: not listed separately
Experiment: Antiproliferative activity against human MINO cells assessed as proliferating cells at 1 uM incubated for 72 hrs by MTT assay relative to control
Assay type: functional
Settings: not given

| SMILES | Activity [%] |
| --- | --- |
| COc1cc(Cn2cc3c(c2)-c2oncc2CC3)cc(OC)c1OC | 8.6 |

System: not listed separately
Experiment: Antiproliferative activity against human HBL1 cells assessed as proliferating cells at 1 uM incubated for 72 hrs by MTT assay relative to control
Assay type: functional
Settings: not given

| SMILES | Activity [%] |
| --- | --- |
| COc1cc(Cn2cc3c(c2)-c2oncc2CC3)cc(OC)c1OC | 7.3 |

System: SU-DHL10
Experiment: Antiproliferative activity against human SU-DHL-10 cells assessed as proliferating cells at 1 uM incubated for 72 hrs by MTT assay relative to control
Assay type: functional
Settings: not given

| SMILES | Activity [%] |
| --- | --- |
| COc1cc(Cn2cc3c(c2)-c2oncc2CC3)cc(OC)c1OC | 13.8 |

System: VL51
Experiment: Antiproliferative activity against human VL51 cells assessed as inhibition of cell proliferation incubated for 72 hrs by MTT assay
Assay type: functional, cell-based
Settings: VL51, 72 h

| SMILES | IC50 [nM] |
| --- | --- |
| COc1cc(Cn2cc3c(c2)-c2oncc2CC3)cc(OC)c1OC | 120 |

System: not listed separately
Experiment: Antiproliferative activity against human MINO cells assessed as inhibition of cell proliferation incubated for 72 hrs by MTT assay
Assay type: functional, cell-based
Settings: not given

| SMILES | IC50 [nM] |
| --- | --- |
| COc1cc(Cn2cc3c(c2)-c2oncc2CC3)cc(OC)c1OC | 70 |

System: not listed separately
Experiment: Antiproliferative activity against human HBL1 cells assessed as inhibition of cell proliferation incubated for 72 hrs by MTT assay
Assay type: functional, cell-based
Settings: HBL1, 72 h

| SMILES | IC50 [nM] |
| --- | --- |
| COc1cc(Cn2cc3c(c2)-c2oncc2CC3)cc(OC)c1OC | 80 |

System: SU-DHL10
Experiment: Antiproliferative activity against human SU-DHL-10 cells assessed as inhibition of cell proliferation incubated for 72 hrs by MTT assay
Assay type: functional, cell-based
Settings: SU-DHL10, 72 h

| SMILES | IC50 [nM] |
| --- | --- |
| COc1cc(Cn2cc3c(c2)-c2oncc2CC3)cc(OC)c1OC | 70 |

System: VL51
Experiment: Induction of cell cycle arrest in human VL51 cells assessed as accumulation at G2/M phase at 50 nM incubated for 24 to 72 hrs by […]
Assay type: functional
Settings: time 24-72 hrs

| SMILES | Activity |
| --- | --- |
| COc1cc(Cn2cc3c(c2)-c2oncc2CC3)cc(OC)c1OC | Active |

System: MINO
Experiment: Induction of cell cycle arrest in human MINO cells assessed as accumulation at G2/M phase at 50 nM incubated for 24 to 72 hrs by […]
Assay type: functional
Settings: time 24-72 hrs

| SMILES | Activity |
| --- | --- |
| COc1cc(Cn2cc3c(c2)-c2oncc2CC3)cc(OC)c1OC | Active |

System: VL51
Experiment: Induction of cell cycle arrest in human VL51 cells assessed as accumulation at subG0 phase at early time point at 50 to 500 nM incubated upto 72 hrs by […]
Assay type: functional
Settings: dose 50-500 nM

| SMILES | Activity |
| --- | --- |
| COc1cc(Cn2cc3c(c2)-c2oncc2CC3)cc(OC)c1OC | Active |

System: MINO
Experiment: Induction of cell cycle arrest in human MINO cells assessed as accumulation at subG0 phase at early time point at 50 to 500 nM incubated upto 72 hrs by […]
Assay type: functional
Settings: dose 50-500 nM

| SMILES | Activity |
| --- | --- |
| COc1cc(Cn2cc3c(c2)-c2oncc2CC3)cc(OC)c1OC | Active |

System: VL51
Experiment: Induction of apoptosis in human VL51 cells at 50 to 500 nM incubated for 24 to 72 hrs by annexin V-FITC/PI staining based analysis
Assay type: functional, cell-based
Settings: dose 50-500 nM, time 24-72 hrs

| SMILES | Activity |
| --- | --- |
| COc1cc(Cn2cc3c(c2)-c2oncc2CC3)cc(OC)c1OC | Active |

System: MINO
Experiment: Induction of apoptosis in human MINO cells at 50 to 500 nM incubated for 24 to 72 hrs by annexin V-FITC/PI staining based analysis
Assay type: functional, cell-based
Settings: dose 50-500 nM, time 24-72 hrs

| SMILES | Activity |
| --- | --- |
| COc1cc(Cn2cc3c(c2)-c2oncc2CC3)cc(OC)c1OC | Active |

System: PBMC
Experiment: Induction of apoptosis in human PBMC cells at 500 nM incubated for 24 to 48 hrs by annexin V staining based analysis relative to control
Assay type: toxicity, cell-based
Settings: 0.5 µM, time 24-48 hrs

| SMILES | Activity [%] |
| --- | --- |
| COc1cc(Cn2cc3c(c2)-c2oncc2CC3)cc(OC)c1OC | 15 |

System: MCF7
Experiment: Cytotoxicity against human MCF7 cells assessed as cell growth inhibition
Assay type: functional, cell-based
Settings: not given

| SMILES | IC50 [nM] |
| --- | --- |
| COc1ccc(Cn2cc3c(c2-c2ccccc2)CCc2c(CN4CCCC4)noc2-3)cc1 | > 5000 |
| COc1ccc(/C=C\c2cc(OC)c(OC)c(OC)c2)cc1O [COMBRETASTATIN A4] | 18 |
| COc1ccc(Cn2cc3c(c2-c2ccccc2)CCc2cnoc2-3)cc1[N+](=O)[O-] | 340 |
| CCOC(=O)c1c2c(cn1Cc1ccc(OC)cc1)-c1oncc1CC2 | > 5000 |
| COc1ccc(Cn2cc3c(c2-c2ccccc2)CCc2cnoc2-3)cc1OC | 4500 |
| c1ccc(Cn2cc3c(c2-c2ccccc2)CCc2cnoc2-3)cc1 | > 5000 |
| COc1cc(Cn2cc3c(c2)-c2oncc2CC3)cc(OC)c1OC | 210 |

Target: Tubulin
Experiment: Inhibition of tubulin assembly (unknown origin)
Assay type: protein-complex assay, Homo sapiens
Settings: not given

| SMILES | IC50 [nM] |
| --- | --- |
| COc1ccc(Cn2cc3c(c2-c2ccccc2)CCc2c(CN4CCCC4)noc2-3)cc1 | 12000 |
| COc1ccc(Cn2cc3c(c2-c2ccccc2)CCc2cnoc2-3)cc1[N+](=O)[O-] | 1500 |
| CCOC(=O)c1c2c(cn1Cc1ccc(OC)cc1)-c1oncc1CC2 | 8000 |
| COc1ccc(Cn2cc3c(c2-c2ccccc2)CCc2cnoc2-3)cc1OC | 3400 |
| c1ccc(Cn2cc3c(c2-c2ccccc2)CCc2cnoc2-3)cc1 | 4600 |
| COc1cc(Cn2cc3c(c2)-c2oncc2CC3)cc(OC)c1OC | 2300 |

Target: Tubulin (Homo sapiens) (UniProt P68371+Q9H4B7+P0DPH7+P68366+Q13509+Q71U36+P04350+Q3ZCM7+P07437+P68363+Q9BQE3+Q6PEY2+Q13885+Q9BVA1+Q9BUF5)
Experiment: Inhibition of [3H]Colchicine binding to tubulin (unknown origin) at 5 uM relative to control
Assay type: protein-complex assay
Settings: not given

| SMILES | inhibition [%] |
| --- | --- |
| COc1ccc(Cn2cc3c(c2-c2ccccc2)CCc2cnoc2-3)cc1[N+](=O)[O-] | 55 |
| COc1ccc(Cn2cc3c(c2-c2ccccc2)CCc2cnoc2-3)cc1OC | 34 |
| c1ccc(Cn2cc3c(c2-c2ccccc2)CCc2cnoc2-3)cc1 | 21 |
| COc1cc(Cn2cc3c(c2)-c2oncc2CC3)cc(OC)c1OC | 80 |
